Assay results: article PMC8064320, “Modulation of Glycinergic Neurotransmission may Contribute to the Analgesic Effects of Propacetamol” (Biomolecules, 2021)

Experiments:
Assay in all cases: two-electrode voltage clamp, agonist-induced current in oocytes
Format in all cases: cell-based
Conditions in all cases: read-out: Glycine Dose-Response Relationship / EC50, -50 mV, ND96 without Ca2+, pH 7.4, 21-23 °C
GlyRα1 = tested on: T1, GlyRα1
T1 construct: gene GLRA1; homomeric receptor (pentamer by known biology); plasmid pNKS2(GlyRα1); cRNA-injected Xenopus laevis oocytes
Excerpt: two-electrode voltage clamp, agonist-induced current in oocytes on GlyRα1

GlyRα3 = tested on: T2, GlyRα3
T2 construct: gene GLRA3; subunit expressed individually (homopentamer by known biology); plasmid pNKS2(GlyRα3); cRNA-injected Xenopus laevis oocytes
Excerpt: two-electrode voltage clamp, agonist-induced current in oocytes on GlyRα3

GlyRα2 = tested on: T3, GlyRα2
T3 construct: gene GLRA2; subunit expressed individually (homopentamer by known biology); plasmid pNKS2(GlyRα2); cRNA-injected Xenopus laevis oocytes
Excerpt: two-electrode voltage clamp, agonist-induced current in oocytes on GlyRα2

NCC(=O)O [glycine] showed an EC50 (GlyRα1) of 162 µM, an EC50 (GlyRα3) of 234 µM and an EC50 (GlyRα2) of 325 µM.
